Measurements reported in PubChem BioAssay (NCI).
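Protocol summary: plate cells (96-well), add compound at 5 concentrations, incubate 48 h, interpolate endpoints linearly. TGI is the concentration that stops growth completely.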

Experiments:
Test in all cases: DTP human tumour cell line panel, 48 h
A549 NSCLC = system: A549 NSCLC
UO-31 renal = system: UO-31 renal
MALME-3M melanoma = system: MALME-3M melanoma
NCI-H522 lung = system: NCI-H522 lung
NCI-H226 lung = system: NCI-H226 lung
SF-295 CNS = system: SF-295 CNS
U251 CNS = system: U251 CNS
K-562 leukemia = system: K-562 leukemia
HS 578T breast = system: HS 578T breast
PC-3 prostate = system: PC-3 prostate
MDA-N = system: MDA-N
SF-539 CNS = system: SF-539 CNS
LOX IMVI melanoma = system: LOX IMVI melanoma
SF-268 CNS = system: SF-268 CNS
SR leukemia = system: SR leukemia
T-47D breast = system: T-47D breast
UACC-257 melanoma = system: UACC-257 melanoma
COLO 205 colon = system: COLO 205 colon
NCI-H23 lung = system: NCI-H23 lung
HL-60(TB) leukemia = system: HL-60(TB) leukemia
MDA-MB-435 = system: MDA-MB-435
NCI/ADR-RES ovarian = system: NCI/ADR-RES ovarian
BT-549 breast = system: BT-549 breast
CCRF-CEM leukemia = system: CCRF-CEM leukemia
SK-OV-3 ovarian = system: SK-OV-3 ovarian
EKVX NSCLC = system: EKVX NSCLC
M14 melanoma = system: M14 melanoma
CAKI-1 renal = system: CAKI-1 renal
OVCAR-8 ovarian = system: OVCAR-8 ovarian
SK-MEL-28 melanoma = system: SK-MEL-28 melanoma
MCF7 breast = system: MCF7 breast
NCI-H460 lung = system: NCI-H460 lung
IGROV1 ovarian = system: IGROV1 ovarian
HOP-62 NSCLC = system: HOP-62 NSCLC
TK-10 renal = system: TK-10 renal
KM12 colon = system: KM12 colon
HCT-15 colon = system: HCT-15 colon
SN12C renal = system: SN12C renal
SNB-19 CNS = system: SNB-19 CNS
786-0 renal = system: 786-0 renal
RPMI-8226 leukemia = system: RPMI-8226 leukemia
RXF 393 renal = system: RXF 393 renal
DU-145 prostate = system: DU-145 prostate
SK-MEL-2 melanoma = system: SK-MEL-2 melanoma
SNB-75 CNS = system: SNB-75 CNS
ACHN renal = system: ACHN renal
HCC-2998 colon = system: HCC-2998 colon
A498 renal = system: A498 renal
MOLT-4 leukemia = system: MOLT-4 leukemia
OVCAR-3 ovarian = system: OVCAR-3 ovarian
SK-MEL-5 melanoma = system: SK-MEL-5 melanoma
HOP-92 NSCLC = system: HOP-92 NSCLC
HCT-116 colon = system: HCT-116 colon
OVCAR-4 ovarian = system: OVCAR-4 ovarian
HT29 colon = system: HT29 colon
OVCAR-5 ovarian = system: OVCAR-5 ovarian
UACC-62 melanoma = system: UACC-62 melanoma
SW-620 colon = system: SW-620 colon
MDA-MB-231 breast = system: MDA-MB-231 breast

N[C@H]1c2c(Br)sc(Br)c2C(=O)[C@H]1O
TGI (A549 NSCLC): 70.1 µM | TGI (UO-31 renal): 47.2 µM | TGI (MALME-3M melanoma): 29.6 µM | TGI (NCI-H522 lung): 8.97 µM | TGI (NCI-H226 lung): 62 µM | TGI (SF-295 CNS): 51.1 µM | TGI (U251 CNS): 29.7 µM | TGI (K-562 leukemia): 15.2 µM | TGI (HS 578T breast): > 87.8 µM | TGI (PC-3 prostate): > 75.1 µM | TGI (MDA-N): 30.1 µM | TGI (SF-539 CNS): 36 µM | TGI (LOX IMVI melanoma): 10.6 µM | TGI (SF-268 CNS): > 68.1 µM | TGI (SR leukemia): 5.79 µM | TGI (T-47D breast): 50.3 µM | TGI (UACC-257 melanoma): 29.7 µM | TGI (COLO 205 colon): 22.2 µM | TGI (NCI-H23 lung): 17.5 µM | TGI (HL-60(TB) leukemia): 10.5 µM | TGI (MDA-MB-435): 36.7 µM | TGI (NCI/ADR-RES ovarian): > 58.9 µM | TGI (BT-549 breast): 16.5 µM | TGI (CCRF-CEM leukemia): 6.63 µM | TGI (SK-OV-3 ovarian): 38.3 µM | TGI (EKVX NSCLC): 30.2 µM | TGI (M14 melanoma): 48.4 µM | TGI (CAKI-1 renal): 16.7 µM | TGI (OVCAR-8 ovarian): 43.7 µM | TGI (SK-MEL-28 melanoma): 26.7 µM | TGI (MCF7 breast): 34.8 µM | TGI (NCI-H460 lung): 35.6 µM | TGI (IGROV1 ovarian): 32.8 µM | TGI (HOP-62 NSCLC): 36.5 µM | TGI (TK-10 renal): > 100 µM | TGI (KM12 colon): > 100 µM | TGI (HCT-15 colon): 24.3 µM | TGI (SN12C renal): 3.63 µM | TGI (SNB-19 CNS): 55.5 µM | TGI (786-0 renal): 34.5 µM | TGI (RPMI-8226 leukemia): 57.4 µM | TGI (RXF 393 renal): 16.2 µM | TGI (DU-145 prostate): 39.4 µM | TGI (SK-MEL-2 melanoma): 69.9 µM | TGI (SNB-75 CNS): 79.7 µM | TGI (ACHN renal): > 64.6 µM | TGI (HCC-2998 colon): 27.5 µM | TGI (A498 renal): > 100 µM | TGI (MOLT-4 leukemia): > 22 µM | TGI (OVCAR-3 ovarian): > 61.9 µM | TGI (SK-MEL-5 melanoma): 41.8 µM | TGI (HOP-92 NSCLC): 38.9 µM | TGI (HCT-116 colon): 34.9 µM | TGI (OVCAR-4 ovarian): 27 µM | TGI (HT29 colon): 30.8 µM | TGI (OVCAR-5 ovarian): 60.7 µM | TGI (UACC-62 melanoma): 23.7 µM | TGI (SW-620 colon): 25.8 µM | TGI (MDA-MB-231 breast): 36.1 µM

C[C@@]1(CCCCCCCCCCc2ccccc2)C[C@@]2(C)OC(=O)C[C@H]2OO1
TGI (A549 NSCLC): > 84.6 µM | TGI (UO-31 renal): 49.9 µM | TGI (MALME-3M melanoma): 3 µM | TGI (NCI-H522 lung): 4.12 µM | TGI (NCI-H226 lung): 10.9 µM | TGI (SF-295 CNS): 4.97 µM | TGI (U251 CNS): 33.1 µM | TGI (K-562 leukemia): 13.6 µM | TGI (HS 578T breast): 7.13 µM | TGI (PC-3 prostate): 4.41 µM | TGI (MDA-N): 3.96 µM | TGI (SF-539 CNS): 2.58 µM | TGI (LOX IMVI melanoma): 34.6 µM | TGI (SF-268 CNS): 7.95 µM | TGI (SR leukemia): 2.97 µM | TGI (T-47D breast): 7.32 µM | TGI (UACC-257 melanoma): 4.55 µM | TGI (COLO 205 colon): 3.37 µM | TGI (NCI-H23 lung): 2.9 µM | TGI (HL-60(TB) leukemia): 35.8 µM | TGI (MDA-MB-435): 3.4 µM | TGI (NCI/ADR-RES ovarian): 55.8 µM | TGI (BT-549 breast): 0.979 µM | TGI (CCRF-CEM leukemia): 3.34 µM | TGI (SK-OV-3 ovarian): 73.3 µM | TGI (EKVX NSCLC): 7.2 µM | TGI (M14 melanoma): 2.98 µM | TGI (CAKI-1 renal): > 84.1 µM | TGI (OVCAR-8 ovarian): 31.7 µM | TGI (SK-MEL-28 melanoma): 4.2 µM | TGI (MCF7 breast): 35 µM | TGI (NCI-H460 lung): 5.06 µM | TGI (IGROV1 ovarian): 53.3 µM | TGI (HOP-62 NSCLC): 35.3 µM | TGI (TK-10 renal): 7.28 µM | TGI (KM12 colon): 38.6 µM | TGI (HCT-15 colon): 44.3 µM | TGI (SN12C renal): 10.4 µM | TGI (SNB-19 CNS): 5.24 µM | TGI (786-0 renal): 32.9 µM | TGI (RPMI-8226 leukemia): 5.36 µM | TGI (RXF 393 renal): 54.3 µM | TGI (DU-145 prostate): > 4.64 µM | TGI (SK-MEL-2 melanoma): 45 µM | TGI (SNB-75 CNS): 6.79 µM | TGI (ACHN renal): 4.88 µM | TGI (HCC-2998 colon): 3.41 µM | TGI (A498 renal): 40.8 µM | TGI (MOLT-4 leukemia): 2.88 µM | TGI (OVCAR-3 ovarian): 34.6 µM | TGI (SK-MEL-5 melanoma): 2.26 µM | TGI (HOP-92 NSCLC): 2.16 µM | TGI (HCT-116 colon): 32.5 µM | TGI (OVCAR-4 ovarian): 5.03 µM | TGI (HT29 colon): 31.5 µM | TGI (OVCAR-5 ovarian): 3.94 µM | TGI (UACC-62 melanoma): 4.35 µM | TGI (SW-620 colon): 40.7 µM | TGI (MDA-MB-231 breast): 36.4 µM
